Measurements: patent publication US20250171404A1, “PCNA INHIBITORS AND USES THEREOF” (CITY OF HOPE, priority 2022, published 2025)
pIC50: −log10 of the molar value.

What was measured:
SK-N-AS = test: Cell growth IC50, screening of AOH1160 analogs; format: cell-based; conditions: Homo sapiens, read-out: IC50 values
Protocol: (§1) FIG. 29. IC50 data for select compounds. The indicated cell lines were seeded at 10^4 cells per well in a 96 well plate. After allowing to attach to the plate overnight, cells were treated with various concentrations of the indicated compounds in triplicates for 72 hrs. The cell growth was measured by an SRB assay. The cell abundances under each treatment condition relative to the baseline were averaged and graphed ±S.D. The baseline is defined as the median value of the cell abundances under the treatment by the two lowest compound concentrations. The IC50 was calculated by the Prism program.

[1] = Cell growth IC50, screening of AOH1160 analogs (cell line not given); format: cell-based; conditions: read-out: IC50 values
Protocol: as §1

[2] = target: T1, PCNA interaction with RPB1 (Homo sapiens, UniProt P12004); test: PCNA interaction with RPB1 (immunoprecipitation, western blotting); format: cell-based; conditions: SK-N-AS
T1 construct: expressed in transfected cells; host or cells: SK-N-AS (FLAG-RPB1 exogenous; PCNA endogenous)
Protocol: FIGS. 5A-5E. Modulation of PCNA interaction with RNA polymerase II. FIG. 5A: Chromatin-bound (CB) proteins were fractioned from HEK293T cells expressing FLAG-tagged PCNA after the cells were treated with or without 500 nM AOH1996. Proteins in complex with FLAG-PCNA were immune-precipitated and analyzed by mass spectrometry. Shown are numbers of proteins whose abundances were altered (grey) or unaltered (black) by more than 2-fold by AOH1996 treatment. FIG. 5B: SK-N-AS cells exogenously expressing a FLAG-tagged RPB1 gene were fractioned before and after being treated with 500 nM AOH1996 overnight. PCNA in complex with chromatin-bound (CB) FLAG-RBP1 were analyzed by western blotting. FIG. 5C: Human SK-N-AS cells were treated with UV in the presence or absence of AOH1996 (AOH) or R9-caPep (caPep). Whole cell extracts were analyzed by western blotting. FIG. 5D: Cells exogenously expressing FLAG-tagged wildtype RPB1 or FLAG-tagged APIM-mutant RPB1 gene were fractioned. PCNA in complex with chromatin-bound (CB) FLAG-RBP1 were analyzed by western blotting. FIG. 5E: HEK293T cells were transiently transfected with a FLAG-tagged wildtype RPB1 (APIM WT) gene or mutant RPB1 gene (APIM mutant). The intracellular MCM7 and RBP1 (both the hypo-phosphorylated RNAPIIa and hyper-phosphorylated RNAPIIo forms) were analyzed by western blot after cells were treated by the indicated agents and/or UV.
Modulating PCNA interaction with transcription machinery.
Cell fractionation and immunoprecipitation. Cells were fractionated as previously described (Li et al., 2018). Briefly, intact nuclei isolated following osmotic lysis were homogenized using a 21 G needle. Chromatin was pelleted by centrifugation and incubated overnight at 4° C. with benzonase in two volumes of nuclease buffer (20 mM HEPES pH 7.5, 1.5 mM MgCl2, 1 mM EDTA, 150 mM KCl, 10% glycerol, 0.5 U μl-1 benzonase). The resulting supernatant was collected as the CB fraction. Alternatively, we sequentially incubated the chromatin pellet with RNase A and benzonase and collected the supernatants after each digestion as the CB:RNA+ and CB:RNA− fractions, respectively (Li et al., 2018).

OVCAR8 = test: Cell growth IC50, screening of AOH1160 analogs; format: cell-based; conditions: Homo sapiens, OVCAR-8; OVCAR8; read-out: IC50 values
Protocol: as §1

RKO = test: Cell growth IC50, screening of AOH1160 analogs; format: cell-based; conditions: Homo sapiens, read-out: IC50 values
Protocol: as §1

HTC-116 = test: Cell growth IC50, screening of AOH1160 analogs; format: cell-based; conditions: HTC-116; read-out: IC50 values
Protocol: as §1

γH2A.X = γH2A.X Western blot (DNA damage marker); format: cell-based, human; conditions: SK-N-AS; 500 nM AOH1996 and/or 50 μM DRB overnight
PCNA = target: T2, PCNA (Homo sapiens, UniProt P12004); test: Thermal denaturation (thermal shift) assay; format: binding; conditions: FIG. 24
T2 construct: made in house; host or cells: E. coli Rosetta 2 (DE3)
Protocol: FIGS. 1A-1E. AOH1160 analog interactions with PCNA. FIG. 1A: Thermal shift assay: Normalized inverse derivative thermal denaturation plots of 9 μM apo-PCNA with DMSO control is depicted with a black dashed line and PCNA in the presence of 10 μM AOH1160LE is shown in light grey and 30 μM AOH1160LE in dark grey. ΔTm values are provided. FIG. 1B: As described in FIG. 1A, in the presence of 10 μM AOH1996 depicted in light grey and 30 μM AOH1996 depicted in dark grey. FIG. 1C: Four monomers (chains A-D) of PCNA are present in the asymmetric unit of the crystal. Chains A, B, and C form the homotrimer biological unit, while chain Dis orientated perpendicular to the plane of the ring, below the interface of chains B and C and it belongs to an adjacent ring. Inset: Three molecules of AOH1160LE bind in and adjacent to the PIP box cavity of each of the PCNA ring subunits. The omit map, gray mesh, is contoured to 1.56. Two PCNA monomer subunits from adjacent rings stack against each other, placing the PIP box and IDCLs of each subunit in opposing directions. FIG. 1D: The three AOH1160LE molecules are shown as stick figure representations. Two of the compounds, left and central, bind into the PIP box cavity at known PCNA-partner/compound interaction sites. […] The electrostatic surface maps are depicted with Poisson-Boltzmann electrostatic surface potentials shown in dark grey and light grey, corresponding to −10 to +10 kT/e respectively.
Targeting the PIP box and APIM binding domain of PCNA. AOH1160, a small molecule PCNA ligand, targets the cancer-distinct L126-Y133 region of PCNA (Malkas et al., 2006) and is selectively toxic to cancer cells (Gu et al., 2018). […]
Thermal denaturation assay for PCNA-AOH1996 interaction. […] Fluorescence intensity was measured within the excitation/emission ranges 470-505/540-700 nm.

SK-N-BE(2)c = test: Cell growth IC50, screening of AOH1160 analogs; format: cell-based; conditions: Homo sapiens
Protocol: as §1

T2 sequence (P12004 whole entry): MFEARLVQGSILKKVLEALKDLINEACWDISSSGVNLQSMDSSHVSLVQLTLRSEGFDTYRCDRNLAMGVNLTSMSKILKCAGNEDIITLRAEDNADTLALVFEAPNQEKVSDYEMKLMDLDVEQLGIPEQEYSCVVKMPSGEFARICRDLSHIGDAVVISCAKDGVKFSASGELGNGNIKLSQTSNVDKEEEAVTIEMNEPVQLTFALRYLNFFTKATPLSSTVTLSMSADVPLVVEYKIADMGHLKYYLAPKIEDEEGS

## O=C(CNC(=O)c1cccc2ccccc12)Nc1ccccc1Oc1ccc(O)cc1 [AOH1160-4′-OH]
SK-N-AS
  pIC50: 6.81

## O=C(Nc1ccccc1Oc1ccccc1)c1cccc2ccccc12 [AOH1160t]
[1]
  pIC50: < 5.00

## COc1cccc(Oc2ccccc2NC(=O)CNC(=O)CCc2cccc3ccccc23)c1 [AOH1996eeNph, N-(2-((2-(3-methoxyphenoxy)phenyl)amino)-2-oxoethyl)-3-(naphthalen-1-yl) propanamide]
[1]
  pIC50: < 5.00

## COc1cccc(Oc2ccccc2NC(=O)CNC(=O)c2ccc(-c3ccccc3)cc2)c1 [AOH1996BiNph, N-(2-((2-(3-methoxyphenoxy)phenyl)amino)-2-oxoethyl)-[1,1′-biphenyl]-4-carboxamide]
[1]
  pIC50: < 5.00

## COc1cccc(Oc2ccccc2NC(=O)c2cccc3ccccc23)c1 [AOH1996t, N-(2-(3-methoxyphenoxy)phenyl)-1-naphthamide]
[1]
  pIC50: < 5.00

## caPep: contains the L126-Y133 sequence of PCNA that overlaps APIM-interacting region of PCNA (LGIPEQEY; UniProt P12004 126-133, looked up, fragment) [reference compound]
[2]; chromatin-bound
  PCNA interaction with RPB1: blocked PCNA interaction with RPB1
[2]; whole cell extracts
  RPB1 levels: increased RPB1 levels

## COc1cccc(Oc2ccccc2NC(=O)CNC(=O)Cc2cccc3ccccc23)c1 [AOH1996eNph, N-(2-(3-methoxyphenoxy)phenyl)-2-(2-(naphthalen-1-yl)acetamido) acetamide]
[1]
  pIC50: < 5.00

## O=C(CNC(=O)c1cccc2ccccc12)Nc1ccccc1Sc1ccc(C(F)(F)F)cc1 [AOH1996S-4CF3, N-(2-oxo-2-((2-((4-(trifluoromethyl)phenyl)thio)phenyl)amino)ethyl)-1-naphthamide]
OVCAR8
  pIC50: 5.47
RKO
  pIC50: 5.00
HTC-116
  pIC50: 5.34

## OC[C@H]1O[C@@H](n2cnc3cc(Cl)c(Cl)cc32)[C@H](O)[C@@H]1O [DRB, reference compound]
γH2A.X
  γH2A.X levels, AOH1996 with DRB: can suppress the DNA damage induced by AOH1996

## O=C(CNC(=O)c1cccc2ccccc12)Nc1ccccc1Nc1ccccc1 [AOH1160NH]
OVCAR8
  pIC50: < 5.00
RKO
  pIC50: < 5.00
HTC-116
  pIC50: < 5.00

## O=C(CNC(=O)c1cccc2ccccc12)Nc1ccccc1Sc1cccc(C(F)(F)F)c1 [AOH1996S-3CF3, N-(2-oxo-2-((2-((3-(trifluoromethyl)phenyl)thio)phenyl)amino)ethyl)-1-naphthamide]
OVCAR8
  pIC50: 5.59
RKO
  pIC50: 5.10
HTC-116
  pIC50: 5.34

## Cc1ccc(Sc2ccccc2NC(=O)CNC(=O)c2cccc3ccccc23)cc1 [AOH1996S-4CH3, N-(2-oxo-2-((2-(p-tolylthio)phenyl)amino)ethyl)-1-naphthamide]
OVCAR8
  pIC50: 6.54
RKO
  pIC50: 6.30
HTC-116
  pIC50: 6.46

## NCCCC[C@H](NC(=O)c1cccc2ccccc12)C(=O)Nc1ccccc1Oc1ccccc1 [AOH1160LK]
[1]
  pIC50: < 5.00

## CC(C)[C@@H](NC(=O)c1cccc2ccccc12)C(=O)Nc1ccccc1Oc1ccccc1 [AOH1160DV, (R)—N-(3-methyl-1-oxo-1-((2-phenoxyphenyl)amino)butan-2-yl)-1-naphthamide]
[1]
  pIC50: < 5.00

## O=C(O)CC[C@@H](NC(=O)c1cccc2ccccc12)C(=O)Nc1ccccc1Oc1ccccc1 [AOH1160DE]
[1]
  pIC50: < 5.00

## COc1cccc(Oc2ccccc2NC(=O)[C@H](CCC(=O)O)NC(=O)c2cccc3ccccc23)c1 [AOH1996LE, (S)-4-(1-naphthamido)-5-((2-(3-methoxyphenoxy)phenyl)amino)-5-oxopentanoic acid]
[1]
  pIC50: < 5.00

## O=C(CNC(=O)c1nccc2ccccc12)Nc1ccccc1Oc1ccncc1 [AOH1167]
[1]
  pIC50: 4.38

## Cc1ccc(Sc2ccccc2NC(=O)[C@H](CCC(=O)O)NC(=O)c2cccc3ccccc23)cc1 [AOH1996SLE-4CH3, (S)-4-(1-naphthamido)-5-oxo-5-((2-(p-tolylthio)phenyl)amino) pentanoic acid]
[1]
  pIC50: < 5.00

## O=C(CNC(=O)c1cccc2ccccc12)Nc1ccccc1S(=O)(=O)c1ccccc1 [AOH1160SO2, N-(2-oxo-2-((2-(phenylsulfonyl)phenyl)amino)ethyl)-1-naphthamide]
[1]
  pIC50: < 5.00

## O=C(CCNC(=O)c1cccc2ccccc12)Nc1ccccc1Oc1ccccc1 [AOH1160e, N-(3-oxo-3-((2-phenoxyphenyl)amino)propyl)-1-naphthamide]
[1]
  pIC50: < 5.00

## O=C(CNC(=O)c1cccc2ccccc12)Nc1ccccc1C(=O)Nc1ccccc1 [AOH1160-2AB, N-(2-oxo-2-((2-(phenylcarbamoyl)phenyl)amino)ethyl)-1-naphthamide]
[1]
  pIC50: < 5.00

## NCCCC[C@@H](NC(=O)c1cccc2ccccc12)C(=O)Nc1ccccc1Oc1ccccc1 [AOH1160DK]
[1]
  pIC50: < 5.00

## CC(C)[C@H](NC(=O)c1cccc2ccccc12)C(=O)Nc1ccccc1Oc1ccccc1 [AOH1160LV, (S)—N-(3-methyl-1-oxo-1-((2-phenoxyphenyl)amino)butan-2-yl)-1-naphthamide]
PCNA
  ΔTm (TSA data): very similar ΔTm compared to AOH1996
[1]
  pIC50: < 5.00

## Cc1ccccc1Oc1ccccc1NC(=O)CNC(=O)c1cccc(C)c1C [AOH-DMB-2CH3, 2,3-dimethyl-N-(2-oxo-2-((2-(o-tolyloxy)phenyl)amino)ethyl)benzamide]
SK-N-AS
  pIC50: 5.95
SK-N-BE(2)c
  pIC50: 5.99
